Results as given in US11753433B2, “Methods of synthesizing substituted purine compounds” (Epizyme, Inc., priority 2013, dated 2023).

How the values were obtained:
[1] = Solid-state photostability; assay type: physicochemical
Experimental: The solid-state photostability of EP-1 trihydrate (x is 3) was assessed upon exposure to UV/Vis light according to ICH guidelines. Loss of claim %, loss of area %, and degradates were evaluated versus dark control samples.
Solid-State Photostability: Weighed ˜5 mg Form B into glass vials with 2 vials covered with foil as the controls. Put these 2 samples with their controls into chamber and expose them to Vis (10 Kilo lux) for 120 hrs followed by UV (10 W/m^2) for 20 hrs (per ICH guidelines). At the end of Vis, take 1 sample and 1 control out for analysis and the others were taken out after both Vis and UV exposure.

[2] = Solid-state stability; assay type: physicochemical
Experimental: Chemical Stability: Accurately weighed ˜10 mg Form B was placed into four 10-ml volumetric flasks. The samples were stored at 5° C. closed dish, 25° C./57% RH open dish, 40° C./75% RH open dish, and 60° C. closed dish for 7 days. The sample stored at 5° C. was used as a control. Assay and total related substances for each sample were checked at the end of 7 days.
Physical Stability: Accurately weighed ˜15 mg of Form B was placed into 5-ml glass vials and the samples were stored at 5° C. closed dish, 25° C./57% RH open dish, 40° C./75% RH open dish, and 60° C. closed dish for 7 days. Samples were analyzed by XRPD and TGA (FIG. 24).

[3] = Bulk control (covered with foil), Vis Stability (1.2 Mil lux-hours)
[4] = Bulk control (covered with foil), Vis-UV stability (1.2 Mil lux-hours + 200 Watt-hours/m^2)
[5] = Bulk, Vis Stability (1.2 Mil lux-hours)
[6] = Bulk, Vis-UV stability (1.2 Mil lux-hours + 200 Watt-hours/m^2)
[7] = 5° C. Closed Dish, 7 Days (control)
[8] = 25° C./57% RH Open Dish, 7 Days
[9] = 40° C./75% RH Open Dish, 7 Days

In the case of `CC(C)N(C[C@H]1O[C@@H](n2cnc3c(N)ncnc32)[C@H](O)[C@@H]1O)[C@H]1C[C@@H](CCc2nc3cc(C(C)(C)C)ccc3[nH]2)C1` [Form B, (2R,3R,4S,5R)-2-(6-amino-9H-purin-9-yl)-5-((((1r,3S)-3-(2-(5-(tert-butyl)-1H-benzo[d]imidazol-2-yl)ethyl)cyclobutyl)(isopropyl)amino)methyl)tetrahydrofuran-3,4-diol trihydrate], the “% area” value [1, 3] is reported as 99.7%, the “% claim” value [1, 3] is reported as 100.0% and the “% area” value [1, 4] is reported as 99.8%. The “% claim” value [1, 4] was 100.0%, the “% area” value [1, 5] was 99.8% and the “% claim” value [1, 5] was 101.1%. For the same molecule, the “% area” value [1, 6] was 99.8%, the “% claim” value [1, 6] was 99.6% and the “solid-state photostability (in words)” value ([1]; bulk, full ICH photostability exposure) was “stable upon exposure to full ICH photostability requirement”. The “Chemical Area % (100% − TRS %)” value [2, 7] was 99.1%, the “Physical TGA (%)” value [2, 7] was 8.63% and the “Physical XRPD” value [2, 7] was “Form B”. The “Chemical % Claim (Cs/Ci × 100%)” value ([2]; 5° C. Closed Dish, 7 Days (used as standard)) was 100.0^& %, the “Chemical % Claim (Cs/Ci × 100%)” value [2, 8] was 100.7% and the “Chemical Area % (100% − TRS %)” value [2, 8] was 99.0%. For the same molecule, the “Physical TGA (%)” value [2, 8] was 8.66%, the “Physical XRPD” value [2, 8] was “Form B” and the “Chemical % Claim (Cs/Ci × 100%)” value [2, 9] was 101.0%. For the same molecule, the “Chemical Area % (100% − TRS %)” value [2, 9] was 99.0%, the “Physical TGA (%)” value [2, 9] was 8.64% and the “Physical XRPD” value [2, 9] was “Form B”. For the same molecule, the “Chemical % Claim (Cs/Ci × 100%)” value ([2]; 60° C. Closed Dish, 7 Days) was 100.7%, the “Chemical Area % (100% − TRS %)” value ([2]; 60° C. Closed Dish, 7 Days) was 99.1% and the “Physical TGA (%)” value ([2]; 60° C. Closed Dish, 7 Days) was 8.49%. The “Physical XRPD” value ([2]; 60° C. Closed Dish, 7 Days) was “Form B”.
